Test results from patent publication US20240197739A1 (Sanofi, priority 2021, published 2024).
Where two headings read alike, the source gives them in different places.

Test system: subcutaneous MCF7-Y537S human breast cancer cell line xenograft
Details: for Tumor volume changes from baseline: Median / Regressions Complete / Regressions Partial / Median % of regressions on day 22 / Unscheduled death (Day of death): PO; for Tumor volume changes from baseline: Median: n = 7; for Anti-tumor effect on tumor growth (statistical significance versus control): two-way ANOVA, contrast analysis; for Regressions Complete: animals with complete regression / group of 7; for Regressions Complete / Regressions Partial / Unscheduled death (Day of death): 22 days; for Regressions Partial: animals with partial regression / group of 7; for ΔT/ΔC in % at day 22: ratio of median tumor volume changes from baseline, treated vs control; for ΔT/ΔC in % at day 22 / Median % of regressions on day 22 / Biological Interpretation: day 22; for Biological Interpretation: based on ΔT/ΔC and statistical analysis; for Unscheduled death (Day of death): deaths / group of 7
Experimental: Anti-tumor efficacy was evaluated by tumor volume measurement.
Female BALB/c nude mice were obtained from Shanghai Sino-British SIPPR/BK Laboratory Animal Co., LTD (Shanghai, CHINA). Animals were allowed to acclimate for at least four days before the study enrollment. Mice were 6 to 8 weeks old and weighed between 18 and 24 grams at the beginning of the treatments. These animals were housed under conditions outlined in the guidelines approved by the Institutional Animal Care and Use Committee (IACUC) of WuXi AppTec following the guidance of the Association for Assessment and Accreditation of Laboratory Animal Care (AAALAC).
Parental MCF7 cells were obtained from the American Type Culture Collection (ATCC® HTB-22™). MCF7-Y537S (ESR1) cell line was MCF7 cells expressing the ER. Y537S variant that was generated by Sanofi Biology Discovery Group. Y537S mutation was introduced in ESR1 construct (GenBank NM_000125.3) by site directed mutagenesis (Toy W. et al., Cancer Discovery, 2017, 7, 277-287). The construct was transfected in MCF7 cells, which were selected for their growth in absence of estradiol. MCF-Y537S is an ESR1 mutation that confers estrogen-independent activity to ERα(Estrogen Receptor alpha) and contributes to endocrine resistant disease (Robinson D.R. et al., Nat Genet., 2013, 45 (12), 1446-1451). The cells were grown in Eagle's Minimum Essential Medium (EMEM) supplemented with 10% fetal bovine serum (FBS), human Insulin, in 5% CO2 at 37° C. The cells were harvested in 0.25% Trypsin EDTA and washed by Phosphate Buffered Saline (PBS) and re-suspended in PBS with 75% Matrigel. The cells (20×10^6 cells/per mouse) were subcutaneously (SC) implanted into the right flank of female nude mice.
When the MCF7-Y537S tumors were established, the tumors were reserved as tumor stocks for fragment implantation. The tumors were serially propagated through fragment tissue transplantation subcutaneously. The fragment tumor tissues were subcutaneously implanted into the right flank of female nude mice. Twenty-eight mice were assigned in this experiment.
The animals required for experiment (plus extra) were pooled and implanted with MCF7-Y537S tumor fragment tissues. […] Animal body weight was assessed daily.
The dosages are expressed in mg/kg and based on daily body weight per animal. Vehicle treated animals were used as controls. Mice were checked daily for adverse clinical reactions. Individual mice were weighed daily until the end of the experiment. Mice would be euthanized when morbid or weight loss ≥20% was observed. Tumors were measured with a caliper twice weekly until final sacrifice. When a tumor size reached approximately 2000 mm^3 or when there are animal health issues (40% area of a tumor ulcerated), animals were euthanized, and date of death recorded. Solid tumor volumes were estimated from two-dimensional tumor measurements and calculated according to the following equation: […]
A dosage producing either 15% body weight loss during 3 consecutive days for an individual mouse, 20% body weight loss during 1 day, or 10% or more drug related deaths, was considered an excessively toxic dosage, unless under certain circumstances bodyweight loss or animal death can be considered non-drug related. […] Animal body weight included the tumor weight.
The primary efficacy end points include tumor volume changes from baseline summarized by the ratio of medians of tumor volume changes from baseline between the treated and control groups (ΔT/ΔC). Changes in tumor volume for each treated (T) and control (C) group were calculated for each animal on each day by subtracting the tumor volume on the day of first treatment (staging day) from the tumor volume on the specified observation day.

[1] = Day 4, amcenestrant 20 mg/kg BID, ribociclib 100 mg/kg QD
[2] = Day 8, amcenestrant 20 mg/kg BID, ribociclib 100 mg/kg QD
[3] = Day 11, amcenestrant 20 mg/kg BID, ribociclib 100 mg/kg QD
[4] = Day 15, amcenestrant 20 mg/kg BID, ribociclib 100 mg/kg QD
[5] = Day 22, amcenestrant 20 mg/kg BID, ribociclib 100 mg/kg QD
[6] = amcenestrant 20 mg/kg BID, ribociclib 100 mg/kg QD, PO for 22 days
[7] = amcenestrant 20 mg/kg BID, ribociclib 100 mg/kg QD
[8] = PO for 22 days, amcenestrant 20 mg/kg BID, ribociclib 100 mg/kg QD

Compound	Tumor volume changes from baseline: Median [1] [mm^3]	Tumor volume changes from baseline: Median [2] [mm^3]	Tumor volume changes from baseline: Median [3] [mm^3]	Tumor volume changes from baseline: Median [4] [mm^3]	Tumor volume changes from baseline: Median (Day 18, amcenestrant 20 mg/kg BID, ribociclib 100 mg/kg QD) [mm^3]	Tumor volume changes from baseline: Median [5] [mm^3]	Anti-tumor effect on tumor growth (statistical significance versus control) [6]	Regressions Complete [7]	Regressions Partial [7]	ΔT/ΔC in % at day 22 [8] [%]	Median % of regressions on day 22 [7] [%]	Biological Interpretation	Unscheduled death (Day of death) [7]	Body weight loss [6]	Tolerability [6]
O=C(O)c1ccc2c(c1)CCCC(c1ccc(Cl)cc1Cl)=C2c1ccc(O[C@H]2CCN(CCCF)C2)cc1 [SAR439859, 6-(2,4-dichlorophenyl)-5-[4-[(3S)-1-(3-fluoropropyl)pyrrolidin-3-yl]oxyphenyl]-8,9-dihydro-7H-benzo[7]annulene-2-carboxylic acid]	43.0	121.0	214.0	360.0	392.0	501.0	no statistically significant anti-tumor effect	0/7	0/7	47	0	Inactive*	0/7	–	–
CN(C)C(=O)c1cc2cnc(Nc3ccc(N4CCNCC4)cn3)nc2n1C1CCCC1.O=C(O)CCC(=O)O [ribociclib, 7-cyclopentyl-N,N-dimethyl-2-[[5-(1-piperazinyl)-2-pyridinyl]amino]-7H-pyrrolo[2,3-d]pyrimidine-6-carboxamide]	44.0	103.0	183.0	292.0	–	423.0	no statistically significant anti-tumor efficacy	0/7	0/7	40	0	Inactive*	0/7	no significant body weight loss	well-tolerated
